Measured values: patent US20160296590A1, “METHOD OF TREATING OR PREVENTING EPILEPSY OR SEIZURES USING ONE OR MORE NEURAL REGENERATION PEPTIDES” (CURONZ HOLDINGS COMPANY LIMITED, priority 2013, published 2016)
“Also recorded” adds a separate entry of the source. Where no end group is shown, it is not given here. [ ]: non-standard residue; d: D form. Aib = CC(C)(N)C(=O)O

Key:
Format in all cases: in vivo, rat
[1] = system: PTZ-induced epileptiform burst discharges; test: Electrocorticogram (ECoG) recording of PTZ-induced epileptiform burst discharges
Protocol: Adult male wistar rats (200-250g) were housed under controlled conditions (ambient temperature=22° C., humidity=40%; 12-h light/dark cycle) with food and water ad libitum. Animals were age- and weight-matched and randomly received by intra peritoneal injection NRP2945 in saline (5, 10 or 20 μg/kg) or saline alone (control) thirty minutes before the i.p. injection of pentylenetetrazol (PTZ; 50 mg/kg dissolved in 0.9% saline). All experiments were carried out according to the protocol approved by the Animal Ethics Committee of Shefa Neuroscience Center, Tehran, Iran. Animals were anaesthetized with chloral hydrate 3.5% (dissolved in normal 0.9% saline; Sigma-Aldrich) and the head of each rat was placed in a stereotaxical instrument (Stoelting Instruments, USA). Epidural recording electrodes were stereotaxically implanted above the left and right somatosensory cortices (3.0 mm posteriorly to Bregma and 3.0 mm laterally from the midline) under continuous chloral hydrate anesthesia. The reference electrode is located at the nasal bone. ECoG was recorded via monopolar silver electrodes connected to an amplifier (EXT-02 F, NPI, Germany; with band-pass filters at […], sampling rate 10 kHz) and stored by a digital oscilloscope. ECoG recordings were performed for 30 minutes after receiving saline or NRP2945 (5, 10, 20 μg/kg) and 30 minutes after the injection of PTZ. Latency, duration, amplitude, and frequency of epileptic spikes activity were calculated using AxoScope 10 software (Axon Instruments, CA, USA).

[2] = system: normal neurons; test: Volume-weighted mean volume of normal neurons (stereology) after PTZ-induced seizures; design: Mean volume of normal neurons CA1 / Mean volume of normal neurons CA3 / Mean volume of normal neurons Cortex: unit not given here; conditions: for Mean volume of normal neurons CA1: hippocampal CA1; for Mean volume of normal neurons CA1 / Mean volume of normal neurons CA3 / Mean volume of normal neurons Cortex: rats; for Mean volume of normal neurons CA3: hippocampal CA3; for Mean volume of normal neurons Cortex: somatosensory cortex
Protocol: (§1) Adult male wistar rats (200-250g) were housed under controlled conditions (ambient temperature=22° C., humidity=40%; 12-h light/dark cycle) with food and water ad libitum. Animals were age- and weight-matched and randomly received by intra peritoneal injection NRP2945 in saline (5, 10 or 20 μg/kg) or saline alone (control) thirty minutes before the i.p. injection of pentylenetetrazol (PTZ; 50 mg/kg dissolved in 0.9% saline). All experiments were carried out according to the protocol approved by the Animal Ethics Committee of Shefa Neuroscience Center, Tehran, Iran.
The volume-weighted mean volume of normal neurons was calculated directly by point-sampled intercept on 10 uniform systematically and randomly sampled microscopic fields of the pyramidal layers of hippocampal areas CA1 and CA3as well as the somatosensory cortex. A lattice of test points on lines was superimposed randomly onto the traced nuclear profiles in each particular field. Nuclei of neurons were marked and two isotropic lines from randomly selected directions were centred on this neuron and superimposed. The intersection of each line with the outer surface of the respective neuron's soma was marked. These lines produced point-sampled intercepts, the lengths of which were measured and cubed. The mean was multiplied by […], and finally all intercepts were averaged to give an estimate of the volume-weighted mean neuronal volume. For quantitative analysis of dark neurons, the physical dissector method was used. Ten pairs of sections, with […] distance, were collected from each brain. The first section of each pair was designated as the reference and the second one was used for comparison. On each pair of sections, at least 10 microscopic fields were selected by uniform systematic-random sampling in every area of interest. Using the unbiased frame and physical dissector counting rule, the counting of dark neurons in each field was carried out (Jafarian et al., 2010).
Animals were deeply anaesthetised with chloral hydrate (3.5%; Sigma-Aldrich) and perfused transcardially with 200 ml of saline followed by 200 ml of a solution containing 1% paraformaldehyde (PFA). After perfusion, all rats were decapitated and the brains were removed. The brains were kept in 1% PFA for at least 10 days and were then processed for histological studies as follows. The brain was cut into transverse sections of 8 µm thickness. Sections were stained with toluidine blue. The sections were selected by uniform systematic random sampling in every area of interest. Different areas (hippocampal CA1 and CA3 areas and somatosensory neocortex) were studied under a light microscope (BX51, Olympus, Japan) equipped with a digital camera. Digital photographs were taken using a 40x oil immersion objective lens (Olympus, Japan). The magnification was calculated using an objective micrometer.

[3] = system: GAD-65; test: Immunohistochemistry of GAD-65 expression after PTZ injection; conditions: 20 μg/kg; somatosensory cortex, CA1 and CA3 hippocampal areas; P<0.001
Protocol: as §1
(§2) Animals were deeply anaesthetized with chloral hydrate and perfused transcardially with 200 ml of saline followed by 600 ml of 4% PFA solution. The brains were extracted and kept in 4% PFA for at least 4 days at 4° C. and were then processed for immunohistochemistry studies. The serial (8 μm) coronal sections were prepared. Three paraffin embedded sections in 1.8 to 3.3 mm posterior to the bregma from each animal were cleared and rehydrated through a series of xylol and alcohol and washed with phosphate buffered saline (PBS) three times and incubated in blockage solution (3% H2O2/methanol for 5 min). After washing in PBS, slides were boiled in sodium citrate buffer at 95° C, for 10 min. […]

[4] = system: PTZ-induced seizures; test: Behavioural test of PTZ-induced seizure attacks; conditions: for Behavioural test Severity: seizure score 0-6
Protocol: Adult male wistar rats (200-250g) were housed under controlled conditions (ambient temperature=22° C., humidity=40%; 12-h light/dark cycle) with food and water ad libitum. Animals were age- and weight-matched and randomly received by intra peritoneal injection NRP2945 in saline (5, 10 or 20 μg/kg) or saline alone (control) thirty minutes before the i.p. injection of pentylenetetrazol (PTZ; 50 mg/kg dissolved in 0.9% saline). All experiments were carried out according to the protocol approved by the Animal Ethics Committee of Shefa Neuroscience Center, Tehran, Iran. After each PTZ-injection, the convulsive behaviour of each rat was assessed for 30 min, and resultant seizures were scored as follows: 0=normal behaviour; 1=immobility; 2=rigid posture; 3=repetitive scratching, circling, or head bobbing; 4=forelimb clonus, rearing, and falling; 5=repeated occurrence of level four behaviour, 6=severe tonic-clonic behaviour or status epilepticus (Karimzadeh et al., 2013). Latency of seizure onset was defined as the average length of time in seconds between PTZ administration an initially detectable and seizure. A generalized seizure was characterised by symmetric forelimb and hind limb tonus, followed by hind limb clonus and subsequent jumping activity. Because some animals occasionally had more than one seizure, the seizure duration was assessed as the sum of durations of these multiple seizures.

[5] = system: dark neurons; test: Dark neuron count (toluidine blue, physical dissector) after PTZ-induced seizures; conditions: hippocampal CA1 and CA3 areas and somatosensory cortex, 5, 10 and 20 μg/kg
Protocol: as §1
The volume-weighted mean volume of normal neurons was calculated directly by point-sampled intercept on 10 uniform systematically and randomly sampled microscopic fields of the pyramidal layers of hippocampal areas CA1 and CA3as well as the somatosensory cortex. A lattice of test points on lines was superimposed randomly onto the traced nuclear profiles in each particular field. […] These lines produced point-sampled intercepts, the lengths of which were measured and cubed. […] For quantitative analysis of dark neurons, the physical dissector method was used. […]
Animals were deeply anaesthetised with chloral hydrate (3.5%; Sigma-Aldrich) and perfused transcardially with 200 ml of saline followed by 200 ml of a solution containing 1% paraformaldehyde (PFA). […] The magnification was calculated using an objective micrometer.

[6] = system: GABAA receptor β subunit; test: Immunohistochemistry of GABAA receptor β subunit expression after PTZ injection; conditions: 20 μg/kg; only CA1 hippocampal region; P<0.001
Protocol: as §1, §2

[7] = system: GABAA receptor α subunit; test: Immunohistochemistry of GABAA receptor α subunit expression after PTZ injection; conditions: 20 μg/kg; somatosensory cortex and hippocampal CA1 area; P<0.001
Protocol: as §1, §2

[8] = 5 μg/kg i.p. 30 min before PTZ, anaesthetized rats
[9] = 10 μg/kg i.p. 30 min before PTZ, anaesthetized rats
[10] = 5 μg/kg i.p. 30 min before PTZ, rats
[11] = 10 μg/kg i.p. 30 min before PTZ, rats

**Q.** For “GlyArgArgAlaAlaProGlyArgAibGlyGly (GRRAAPGR[Aib]GG) [NRP2945, 11-residue neural regeneration peptide, derived from amino acid position 40-50 of human CAPS2]”, which “ECoG Amplitude” value [1, 8] is on record?
**A.** 1.1 ± 0.04 mV

**Q.** What about the “ECoG Duration” value [1, 8] of the same substance?
**A.** 60 ± 1.2 s

**Q.** What about the “ECoG Frequency” value [1, 8] of the same substance?
**A.** 4.7 ± 0.3 per min

**Q.** What about the “ECoG Latency” value [1, 8] of the same substance?
**A.** 326 ± 24 s

**Q.** What about the “ECoG Amplitude” value [1, 9] of the same substance?
**A.** 0.84 ± 0.1 mV

**Q.** What about the “ECoG Duration” value [1, 9] of the same substance?
**A.** 60 ± 2.1 s

**Q.** And the “ECoG Frequency” value [1, 9]?
**A.** 6.67 ± 0.9 per min

**Q.** What about the “ECoG Latency” value [1, 9] of the same substance?
**A.** 417 ± 37 s

**Q.** What about the “development of epileptiform field potentials” value ([1]; 20 μg/kg i.p. 30 min before PTZ, anaesthetized rats) of the same substance?
**A.** completely prevented

**Q.** And the “amplitude of epileptiform field potentials compared to control” value ([1]; 5 and 10 μg/kg i.p., P≦0.001)?
**A.** significantly smaller; also recorded: decreased

**Q.** And the “duration of epileptiform field potentials compared to control” value ([1]; 5 and 10 μg/kg i.p., P≦0.001)?
**A.** significantly shorter; also recorded: decreased

**Q.** And the “latency time to onset of first spike waves compared to control” value ([1]; 5 and 10 μg/kg i.p., P≦0.001)?
**A.** increased

**Q.** What about the “repetition rate (frequency) of epileptiform field potentials compared to control” value ([1]; 5 and 10 μg/kg i.p., P≦0.001) of the same substance?
**A.** significantly lower; also recorded: decreased

**Q.** And the “mean volume of normal neurons after PTZ-induced seizures compared to control” value ([2]; 5 μg/kg)?
**A.** did not affect

**Q.** And the “mean volume-weighted volume of normal neurons compared to control” value ([2]; 10 and 20 μg/kg, CA1, CA3 and somatosensory cortex, P≦0.001)?
**A.** higher; also recorded: larger

**Q.** And the “Mean volume of normal neurons CA1” value ([2]; 5 μg/kg i.p. before PTZ)?
**A.** 380.9 ± 7.1

**Q.** And the “Mean volume of normal neurons CA1” value ([2]; 10 μg/kg i.p. before PTZ)?
**A.** 413.1 ± 4.4

**Q.** And the “Mean volume of normal neurons CA1” value ([2]; 20 μg/kg i.p. before PTZ)?
**A.** 451.9 ± 5.5

**Q.** And the “Mean volume of normal neurons CA3” value ([2]; 5 μg/kg i.p. before PTZ)?
**A.** 387.9 ± 3.2

**Q.** What about the “Mean volume of normal neurons CA3” value ([2]; 10 μg/kg i.p. before PTZ) of the same substance?
**A.** 438.6 ± 5.6

**Q.** What about the “Mean volume of normal neurons CA3” value ([2]; 20 μg/kg i.p. before PTZ) of the same substance?
**A.** 474.1 ± 5.1

**Q.** What about the “Mean volume of normal neurons Cortex” value ([2]; 5 μg/kg i.p. before PTZ) of the same substance?
**A.** 340.8 ± 3.1

**Q.** And the “Mean volume of normal neurons Cortex” value ([2]; 10 μg/kg i.p. before PTZ)?
**A.** 395.7 ± 6.1

**Q.** And the “Mean volume of normal neurons Cortex” value ([2]; 20 μg/kg i.p. before PTZ)?
**A.** 387.9 ± 7.5

**Q.** And the “expression of GAD-65 immunoreactive neurons compared to control” value [3]?
**A.** significantly higher; also recorded: significant increase

**Q.** What about the “Behavioural test Latency” value ([4]; 5 μg/kg i.p. 30 min before PTZ 50 mg/kg i.p., rats) of the same substance?
**A.** 230.2 ± 10.6 s

**Q.** And the “Behavioural test Duration” value [4, 10]?
**A.** 35.83 ± 5.9 s

**Q.** What about the “Behavioural test Severity” value [4, 10] of the same substance?
**A.** 3.67 ± 0.21

**Q.** What about the “Behavioural test Latency” value ([4]; 10 μg/kg i.p. 30 min before PTZ 50 mg/kg i.p., rats) of the same substance?
**A.** 150.2 ± 7.4 s

**Q.** And the “Behavioural test Duration” value [4, 11]?
**A.** 37.67 ± 7.3 s

**Q.** And the “Behavioural test Severity” value [4, 11]?
**A.** 3.67 ± 0.21

**Q.** What about the “PTZ-induced seizures or convulsions” value ([4]; 20 μg/kg i.p. 30 min before PTZ, rats) of the same substance?
**A.** completely prevented

**Q.** And the “latency of seizure attacks compared to control” value ([4]; 5 and 10 μg/kg i.p.)?
**A.** not affecting

**Q.** And the “severity of seizure attacks compared to control” value ([4]; 5 and 10 μg/kg i.p.)?
**A.** not affecting

**Q.** What about the “total duration of seizure attacks compared to control” value ([4]; 5 and 10 μg/kg i.p., p<0.05, n=12) of the same substance?
**A.** reduced

**Q.** And the “Density (production) of dark neurons in comparison to saline” value [5]?
**A.** significantly decreased

**Q.** What about the “Density (production) of dark neurons in comparison to saline” value ([5]; listed as NRP 2945) of the same substance?
**A.** inhibited

**Q.** And the “expression of GABAA receptor β subunit compared to control” value [6]?
**A.** higher; also recorded: enhanced

**Q.** What about the “expression of GABAA receptor α subunit compared to control” value [7] of the same substance?
**A.** higher expression; also recorded: significant enhancement
